The test system of test [1] is β2/3 subunit of the GABAA receptor. Description: GABAA receptor β2/3 subunit level in cortical cultures, immunoblot. The conditions noted are these: 50 μM, 24 hrs. Type of test: cell-based, rat. As to the method: Primary rat neuron cultures were prepared from embryos of pregnant Sprague-Dawley rats (E18). The experimental protocol was approved by the University of British Columbia Animal Care Committee. Briefly, the cortical tissue or ventral midbrain tissue was isolated into ice cold HBSS (Invitrogen, 14170-112) and then digested with 0.25% trypsin-EDTA at 37° C. for 30 min. After washing with warm DMEM (supplemented with 10% FBS) three times, neurons were suspended in neuron culture media and dissociated by trituration using varying sizes of pipettes. Neurons were then centrifuged, and the pellet was re-suspended in culture media, washed twice with culture media, and plated on the poly-D-lysine-coated plates. Neuron culture was maintained in the 37° C. incubator with 95% O2 and 5% CO2. The morning after culturing, 2/3 of the neuron culture media was replaced with fresh neuron culture media. Media was then replaced every 3-4 days. […]
Brain tissues or cultured cells were lysed on ice in the lysis buffer and then the solution was centrifuged at 14,000 rpm for 10 min at 4° C. Next, the supernatant was collected and protein concentrations were determined using a BCA protein assay kit (Thermo Scientific, 23227). […] The band density of each protein was quantified by the Bio-Rad Quantity One software and the relative optical density was analyzed relative to the loading control β-actin on the same membrane.

Test [2] has as its target T1, phosphorylated (pS129) α-synuclein (Homo sapiens, UniProt P37840, A53T).
T1 construct: tissue The Jackson Laboratory 004479; host or cells: coronal brain sections (substantia nigra, pons) of M83 mice injected with human α-synuclein PFFs
Description: PFF mouse model of spreading synucleinopathy, pS129 α-synuclein immunostaining. Type of test: in vivo. Particulars: PFF-injected M83 mice, 40 mg/kg i.p. over 20 days, at three months, vs Tat-βsyn group. As to the method: (§1) M83 mice were injected intracerebrally (i.e.) into the right dorsal striatum with either 12.5 μg of α-synuclein pre-formed fibrils (PFFs) or PBS. Starting at 3 days prior to the PFF injection, mice were treated daily for 12 days with either Tat-βsyn or Tat-βsyn-degron peptide (40 mg/kg; i.p.) and once every other day for the subsequent 8 days (20 days in total, FIG. 5a). At the end of three months, coronal brain sections of the M83 mice were prepared and stained with antibodies against serine 129-phosphorylated α-synuclein (pS129syn), a marker of pathogenic synuclein aggregates, and Iba-1, a calcium-binding protein specifically expressed in macrophage and microglia as a marker of neuroinflammation.
(§2) PFFs were generated in-house based on the Volpicelli-Daley et al protocol. […] PFFs were characterized using a negative staining protocol and analyzed using an electron microscope. […] PFFs were visualized using a transmission electron microscope (FEI Tecnai 12 Bio Twin 120 kV TEM) coupled to a AMT XR80C CCD camera, and analyzed with ImageJ 1.5 and Matlab 2017b software. […]
(§3) Brains from M83 mice that received i.e. and i.p. injections were processed for immunohistochemistry. […] Coronal sections were analyzed using Fiji-ImageJ 1.5 software to detect the total area labeled with the peroxidase immunoreaction product. The results were analyzed using GraphPad Prism software.

A further test relates to Iba-1. Description: PFF mouse model of spreading synucleinopathy, microglial Iba-1 immunostaining. The format is in vivo. The conditions noted are these: PFF-injected M83 mice, 40 mg/kg i.p. over 20 days, at three months, vs Tat-βsyn group. As for the experimental part:
as §1, §2, §3

Consider one sequence from US20260027179A1, “ANTI-SYNUCLEINOPATHY PEPTIDE AND METHODS TO TREAT NEURODEGENERATIVE DISEASES” (University of British Columbia, priority 2021, published 2026).

Turning to “YGRKKRRQRRRRTKSGVYLVGRRRG (The sequence is synthesized (YGRKKRRQRRRRTKSGVYLVGRRRG)) [Tat-βsyn-degron]”, the “expression level of β2/3 subunit of the GABAA receptor” value in test [1] is listed as “did not affect the expression levels”. In test [2], the “pS129syn staining in pons” value is on record as “significantly reduced” and the “pS129syn staining in substantia nigra pars compacta” value is “significantly reduced”. For the same sequence, in the test on Iba-1, the “Iba-1 staining in pons” value is recorded as “significantly reduced the level of Iba-1 staining” and the “Iba-1 staining in substantia nigra pars compacta” value is on record as “no observable effect”.
